# How the values were obtained:
# [1] = target: α1 Receptor; assay: α1 receptor binding; settings: read-out: α1 Receptor Binding IC50, Alpha1
# [2] = test system: norepinephrine uptake; assay: Norepinephrine uptake functional assay (rat hypothalamus synaptosomes); assay type: biochemical; settings: read-out: Monoamine Neuronal Transport IC50, NE uptake
# Experimental: Characterization of norepinephrine uptake is performed using synaptosomes isolated at Cerep in a 0.32 M sucrose buffer from a male Wistar rat hypothalamus. The uptake of radiolabeled norepinephrine by synaptosomes (100 μg of proteins/point) is allowed by incubating them for 20 minutes at 37° C. in presence of test compounds and [3H]-norepinephrine (0.1 μCi/point). The experiment is performed in a deep well.
# Synaptosomes and [3H]-norepinephrine are prepared in a Krebs buffer pH 7.4 containing 25 mM NaHCO3, 11 mM glucose and 50 μM ascorbic acid. This incubation buffer is oxygenated during 5 minutes before incubation. Basal control is incubated for 20 minutes at 4° C. in order to avoid any uptake. Following this incubation the uptake is stopped by filtration through an “unifilter 96-wells GFB” Packard plate washed with Krebs buffer containing 25 mM NaHCO3 in order to eliminate the free [3H]-norepinephrine. The radioactivity associated to the synaptosomes retained onto the unifilter corresponding to the uptake is then measured with a microplate scintillation counter Topcount, Packard using a scintillation liquid microscint 0, Packard.
# [See Perovics and Müller, op.cit. (1995).]
# [3] = test system: serotonin uptake; assay: Serotonin uptake functional assay (rat cortex synaptosomes); assay type: biochemical; settings: for IC50: rat cortex synaptosomes, read-out: Monoamine Neuronal Transport IC50, 5-HT Uptake
# Experimental: Characterization of serotonin uptake is performed using synaptosomes isolated in a 0.32 M sucrose buffer from a male Wistar rat cortex. The uptake of radiolabelled serotonin by synaptosomes (100 μg of proteins/point) is allowed by incubating them for 15 minutes at 37° C. in presence of test compounds and [3H]5-hydroxytryptamin (0.1 μCi/point). The experiment is performed in a deep well.
# Synaptosomes and [3H]5-hydroxytryptamin are prepared in a Krebs buffer pH 7.4 containing 25 mM NaHCO3, 11 mM glucose and 50 μM ascorbic acid. This incubation buffer is oxygenated during 5 minutes before incubation. Basal control is incubated for 15 minutes at 4° C. in order to avoid any uptake. Following this incubation the uptake is stopped by filtration through an “unifilter 96-wells GFB” Packard plate washed with Krebs buffer containing 25 mM NaHCO3 in order to eliminate the free [3H]5-hydroxytrptamin. The radioactivity associated to the synaptosomes retained onto the unifilter corresponding to the uptake is then measured with a microplate scintillation counter Topcount, Packard using a scintillation liquid microscint 0, Packard.
# [See Perovics and Müller “Pharmacological profile of hypericum extract: effect on serotonin uptake by postsynaptic receptors”, Arzeim.
# [4] = target: CYP3A4 (Homo sapiens, UniProt P08684); assay: CYP450 inhibition, CYP3A4 BZRes; assay type: in vitro ADME; settings: parameter and unit inferred
# Chain of CYP3A4 (P08684 whole entry): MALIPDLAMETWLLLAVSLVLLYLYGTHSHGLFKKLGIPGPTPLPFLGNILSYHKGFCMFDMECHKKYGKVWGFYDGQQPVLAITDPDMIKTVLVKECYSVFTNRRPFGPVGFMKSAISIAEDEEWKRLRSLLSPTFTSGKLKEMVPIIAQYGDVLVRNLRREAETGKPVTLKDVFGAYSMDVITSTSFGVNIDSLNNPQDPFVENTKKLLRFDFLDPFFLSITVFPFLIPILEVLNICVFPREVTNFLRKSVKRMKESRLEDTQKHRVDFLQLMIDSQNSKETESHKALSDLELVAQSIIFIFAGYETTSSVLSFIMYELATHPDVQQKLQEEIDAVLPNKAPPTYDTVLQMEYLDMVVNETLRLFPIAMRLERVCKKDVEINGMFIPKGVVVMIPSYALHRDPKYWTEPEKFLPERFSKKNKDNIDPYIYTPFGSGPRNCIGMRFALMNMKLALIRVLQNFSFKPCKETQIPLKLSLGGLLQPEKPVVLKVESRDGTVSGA
# [5] = target: T1, CYP1A2 (Homo sapiens, UniProt P05177); assay: CYP450 inhibition, CYP1A2; assay type: in vitro ADME; settings: parameter and unit inferred
# T1 sequence (P05177 1-516): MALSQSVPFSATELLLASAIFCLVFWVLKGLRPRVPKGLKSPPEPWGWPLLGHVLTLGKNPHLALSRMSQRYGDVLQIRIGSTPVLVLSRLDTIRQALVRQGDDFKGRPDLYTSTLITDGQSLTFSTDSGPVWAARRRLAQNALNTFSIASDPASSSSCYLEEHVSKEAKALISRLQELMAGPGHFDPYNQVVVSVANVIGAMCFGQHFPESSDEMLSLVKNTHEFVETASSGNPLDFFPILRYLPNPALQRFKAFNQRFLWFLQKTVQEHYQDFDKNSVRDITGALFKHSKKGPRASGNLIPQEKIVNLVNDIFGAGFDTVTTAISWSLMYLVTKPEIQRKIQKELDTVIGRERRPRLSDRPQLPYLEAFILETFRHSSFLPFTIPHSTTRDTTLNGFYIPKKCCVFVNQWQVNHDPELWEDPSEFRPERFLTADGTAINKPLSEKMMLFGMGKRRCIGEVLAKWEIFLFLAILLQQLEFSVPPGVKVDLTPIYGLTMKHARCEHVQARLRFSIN
# [6] = target: T2, Human 5-HT2A Receptor (Homo sapiens, UniProt P28223); assay: Human 5-HT2A receptor binding ([3H]ketanserin); settings: comment on Table 2
# T2 construct: expressed in transfected cells; host or cells: CHO cells
# T2 sequence (P28223 whole entry): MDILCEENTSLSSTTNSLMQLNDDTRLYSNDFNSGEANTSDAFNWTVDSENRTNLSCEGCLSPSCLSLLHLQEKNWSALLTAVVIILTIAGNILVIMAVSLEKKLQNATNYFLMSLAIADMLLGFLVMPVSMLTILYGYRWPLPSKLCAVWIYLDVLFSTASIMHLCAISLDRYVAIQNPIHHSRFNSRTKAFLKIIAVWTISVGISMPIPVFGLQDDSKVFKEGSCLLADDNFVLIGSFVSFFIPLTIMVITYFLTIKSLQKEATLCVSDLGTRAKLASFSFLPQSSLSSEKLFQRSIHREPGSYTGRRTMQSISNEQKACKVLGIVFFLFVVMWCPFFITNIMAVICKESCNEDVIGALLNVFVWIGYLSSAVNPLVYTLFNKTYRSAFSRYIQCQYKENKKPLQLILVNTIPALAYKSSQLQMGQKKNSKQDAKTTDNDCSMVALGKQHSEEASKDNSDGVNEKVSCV
# Experimental: (§1) Dopamine and serotonin receptor binding assays were performed in a standard manner with the incubation of membrane preparations in an assay buffer in the presence of a known radioactively labeled specific ligand for the receptor subtypes. Nonspecific binding was determined by assessing binding in the presence of excess ligand. Specific binding was measured as the total labeled ligand bound after the nonspecific binding was subtracted. The effect of the tested agents was measured by determining the competition for the receptor binding across a concentration range. Subsequently, an IC50 was determined for the agents tested. More specific details are provided below for several of the assays performed.
# Nonspecific binding is determined in the presence of 1 μM ketanserin. […] Bound radioactivity is measured with a scintillation counter (Topcount, Packard) using a liquid scintillation cocktail (Microscint 0, Packard). The reference compound for this assay is ketanserin.
# [7] = target: CYP2C19 (Homo sapiens, UniProt P33261); assay: CYP450 inhibition, CYP2C19; assay type: in vitro ADME; settings: parameter and unit inferred
# Chain of CYP2C19 (P33261 whole entry): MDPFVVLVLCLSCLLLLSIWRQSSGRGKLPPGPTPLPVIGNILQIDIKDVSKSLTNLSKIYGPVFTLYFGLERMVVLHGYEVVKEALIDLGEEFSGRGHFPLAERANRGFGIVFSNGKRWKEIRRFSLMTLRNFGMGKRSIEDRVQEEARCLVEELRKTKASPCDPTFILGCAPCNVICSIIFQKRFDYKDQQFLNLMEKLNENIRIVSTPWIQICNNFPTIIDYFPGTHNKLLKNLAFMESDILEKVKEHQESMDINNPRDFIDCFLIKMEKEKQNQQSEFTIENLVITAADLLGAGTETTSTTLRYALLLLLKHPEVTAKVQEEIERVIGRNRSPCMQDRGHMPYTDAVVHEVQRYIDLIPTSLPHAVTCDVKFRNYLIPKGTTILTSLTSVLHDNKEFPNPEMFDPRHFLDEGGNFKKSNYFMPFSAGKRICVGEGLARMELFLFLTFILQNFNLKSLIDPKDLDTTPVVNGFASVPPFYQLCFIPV
# [8] = target: T3, Human D2 Receptor (Homo sapiens, UniProt P14416); assay: Human D2 receptor binding ([3H]spiperone); settings: comment on Table 1
# T3 construct: expressed in transfected cells; host or cells: A9L cells
# T3 sequence (P14416 whole entry): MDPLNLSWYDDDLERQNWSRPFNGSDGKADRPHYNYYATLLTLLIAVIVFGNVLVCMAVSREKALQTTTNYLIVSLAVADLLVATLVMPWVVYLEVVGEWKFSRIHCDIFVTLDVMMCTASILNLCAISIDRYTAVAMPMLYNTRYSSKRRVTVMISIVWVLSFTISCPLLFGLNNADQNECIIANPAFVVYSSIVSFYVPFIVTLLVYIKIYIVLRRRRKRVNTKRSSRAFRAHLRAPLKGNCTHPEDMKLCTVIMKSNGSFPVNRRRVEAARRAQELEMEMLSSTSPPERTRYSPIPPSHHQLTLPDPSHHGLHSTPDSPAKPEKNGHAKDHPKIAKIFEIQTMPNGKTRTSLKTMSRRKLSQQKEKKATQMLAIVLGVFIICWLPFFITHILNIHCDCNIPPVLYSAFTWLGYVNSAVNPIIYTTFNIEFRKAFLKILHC
# Experimental: as §1
# Aliquots of transfected A9L cell membrane preparations corresponding to 20-40 μg protein are incubated for 60 min at 22° C. in 250 μL of 50 mM Tris-HCl buffer (pH 7.4) containing 120 mM NaCl, 5 mM KCl, 5 mM MgCl2, 1 mM EDTA, 0.3 nM [^3H]spiperone and increasing concentrations of the competing drugs. Nonspecific binding is determined in the presence of 10 μM (+)butaclamol. […] Bound radioactivity is measured with a scintillation counter (Topcount, Packard) using a liquid-scintillation cocktail (Microscint 0, Packard). […]
# [9] = immediate-release tablets; first-pass metabolism; cited from earlier work
SMILES,IC50 [1],IC50 [2],IC50 [3],IC50 [4],IC50 [5],Affinity for 5HT2A receptors (in words) [6],IC50 [7],Activity in inhibiting serotonin uptake (in words) ([3]; comment on Table 4),Affinity for the D2 receptor (in words) [8],Bioavailability [9]
"CC(O)c1nn(CCCN2CCN(c3cccc(Cl)c3)CC2)c(=O)n1CCOc1ccccc1 (racemic) [(RS)—OH, hydroxynefazodone]",381 nM,1000 nM,500 nM,–,–,–,–,–,–,–
"C[C@@H](O)c1nn(CCCN2CCN(c3cccc(Cl)c3)CC2)c(=O)n1CCOc1ccccc1 [(R)—OH, (R)-Hydroxynefazodone]",367 nM,1200 nM,640 nM,> 200000 nM,> 200000 nM,–,–,–,–,–
C[C@H](O)c1nn(CCCN2CCN(c3cccc(Cl)c3)CC2)c(=O)n1CCOc1ccccc1 [(S)—OH],419 nM,–,790 nM,–,> 200000 nM,highest affinity,> 200000 nM,least active enantiomer,excellent affinity,–
"CCc1nn(CCCN2CCN(c3cccc(Cl)c3)CC2)c(=O)n1CCOc1ccccc1 [Nefazodone, 2-[3-[4-(3-chlorophenyl)-1-piperazinyl]-propyl-]5-ethyl-2,4-dihydro-4-(2-phenoxy-ethyl)-3H-1,2,4-triazol-3-one, reference compound]",306 nM,1200 nM,200 nM,–,> 200000 nM,–,–,–,–,approximately 20%

# Source: patent publication US20030083338A1, “Compositions and methods for management of serotonin-mediated disorders” (priority 2001, published 2003)
